Tests used:
C4-2 cells = test: MTS assay, growth inhibition and cytotoxicity, virus alone or with adriamycin; format: cell-based; conditions: adriamycin alone 0.1 μg/ml; by 72 hours
Method: 3-(4,5)-Dimethylthiazol-2-yl)-5-(3-carboxy-methoxyphenyl)-2-(4-sulfophenyl)-2H-tetrazolium (MTS) assay: The metabolic viability of the cells was monitored using a MTS assay kit (CellTiter 96) from Promega (Madison, Wis.). Briefly cells are seeded onto 96-well plates and cultured in the presence of test agents for indicated time intervals. A mixture of MTS and phenazine methosulfate (an electron-coupling reagent; final concentrations 333 μg/ml and 25 μM, respectively) is added, and cells are incubated for 30 minutes at 37° C. Formazan formed from the reduction of MTS is quantified by measurement of absorbance of the medium at 490 nm using a microplate reader (All data have been normalized to the background signals).
Combinatory studies of Adriamycin with Ad5-RV004.21 or Ad5-RV004 virus in C4-2 cells: Combination treatment of viruses with radiation or chemotherapy hold promise as a new strategy for cancer treatment. However, there are reports of attenuated cytotoxicity of CRAds when combined with chemotherapies (e.g., doxorubicin). […] Cell cytotoxicity is measured by MTS assay after 72 hours of treatment and followed every 24 hours for a total of 7 days. […] The predicted value for the combinatory effect can be calculated and is given by the dotted gray line.

[1] = test system: p21/Waf-1 knockdown C4-2 cells; test: Cell death of p21/Waf-1 knockdown C4-2 cells treated with drug; format: cell-based

COc1cccc2c1C(=O)c1c(O)c3c(c(O)c1C2=O)C[C@@](O)(C(=O)CO)C[C@@H]3O[C@H]1C[C@H](N)[C@H](O)[C@H](C)O1 [adriamycin]
C4-2 cells killed (C4-2 cells): ~50% | cell death in p21/Waf-1 knockdown C4-2 cells compared to the wild type cell lines [1]: increase in cell death
